Data as given in patent publication US20240293395A1, “NALTREXONE FOR IMPROVING THE […] OF 5-HT RECEPTOR SUBTYPE 2A, 2B or 2C AGONISTS” (LDN Pharma Limited, priority 2021, published 2024).

How the values were obtained:
[1] = system: 5-HT receptor 2B (HTR2B), mRNA; assay: Microarray gene expression in CD3+ lymphocytes, HTR2B probe ILMN_1735764; type: cell-based, human; details: 4 h, Illumina HT12-v3 array
Procedure: (§1) CD3+ lymphocytes were isolated from the blood of haematologically normal volunteers. Cells placed into 25 cm3 flasks at a concentration of 1×10^6/ml, and left to equilibrate in an incubator with a humidified atmosphere and 5% CO2 in air at 37° C. […] RNA extraction was performed using Trizol according to standard procedures, before being processed for microarray analysis according to the standard methodologies. Briefly, equal amounts of biotinylated cRNA was hybridised to the Illumina human HT12-v3 arrays for 18 h and subsequently processed according to manufacturer's instructions before scanning on an Illumina BeadArray Reader. The image data were processed using default values in GenomeStudio v2009.1 with imputation of missing data, before loading onto GeneSpring v9.0 for data normalisation and filtering. Data analyses were performed using Excel software, and the ratio of gene expression signals in treated vs. untreated calculated.

[2] = system: mRNA for one or more of 5-HT2A, 5-HT2B or 5-HT2C receptor proteins; assay: Microarray gene expression in CD3+ lymphocytes, summary statement over 5-HT2 receptors; type: cell-based, human; details: both higher dose (10 uM) and low dose (10 nM) naltrexone, 4 h
Procedure: as §1

For O=C1CC[C@@]2(O)[C@H]3Cc4ccc(O)c5c4[C@@]2(CCN3CC2CC2)[C@H]1O5 [NTX, morphinan-6-one, 17-(cyclopropylmethyl)-4,5-epoxy-3,14-dihydroxy-(5α)], the “gene expression signal, LDN” value ([1]; low dose naltrexone 10 nM) was 147.45, the “gene expression signal, NTX” value ([1]; naltrexone 10 uM) was 177.95 and the “levels of mRNA for one or more of 5-HT2A, 5-HT2B or 5-HT2C receptor proteins” value [2] was “selectively increase the levels of mRNA”.
